US20060193916A1, “Formulations of peptides for periodontal and dental treatments” (Acologix, Inc., priority 2005, published 2006)

Legend:
[1] = tested on: primary mesenchimal stem cell culture; details: in vitro; cited from earlier work
[2] = tested on: alveolar bone extraction socket
Text: One mandibular premolar per side was extracted. The intra-socket septae in the extraction socket were removed and the wound margins adapted.
Treatment Group I (10 dogs-5 per each time point 3 days and 28 days): • a.
Treatment Group 2 (10 dogs-5 per each time point 3 days and 28 days): • a.
Treatment Group 3 (6 dogs-3 per each time point 3 days and 28 days): • a. Right side: create gingival flap around #407; extract #407 (section with 7011); remove intra-socket septa with 5511; radiograph; measure socket depth; soak a collagen sponge in BMP2; apply collagen sponge to socket; close gingival flap with 4-0 maxon. • b. Left side; create gingival flap around #307; extract #307 (section with 701 l); remove intra-socket septa with 551 l; radiograph; measure socket depth; soak a collagen sponge in 100 μl of saline, apply collagen sponge to socket; close gingival flap with 4-0 maxon.
After the specimens were received, the specimens were processed, decalcified and embedded in paraffin. The mandible specimens were stained with Toluidine blue for osteoblast evaluations.
Histopathological assessment of the stained section was done without knowledge of treatment group. Qualitative observations included the analysis of the underlying bone, including any soft tissue, which may have come into contact with the test material formulation. Fibrous tissue encapsulation, cellular infiltrates and inflammatory responses at the repair site and the soft tissues were also evaluated.
Static histomorphometric analysis was performed on sections stained with toluidine blue stain to determine the percent area of bone in-growth present within the samples using an OsteoMeasure® image analysis system, and associate software (version 4.00c). The amount and quality of the newly formed bone was scored for 0-4, respectively, and evaluated collectively. Tissue reaction such as inflammation and presence of fibrous tissue were also evaluated using the respective scoring system.

human dental pulp cells = details: cited from earlier work
[3] = tested on: dentin and pulp tissue of teeth with deep class V preparations; test: Indirect pulp capping study in dogs (deep class V preparations in maxillary teeth)
Experimental: Deep class V preparations were made without penetrating the pulp cavity on the buccal (labial) side of 8 maxillary teeth (2 premolars and 1 molar on each side of the oral cavity in one canine) in 10-month old Beagle dogs. A radiograph was taken to confirm location of the pulp cavity. The cavities (defects) were drilled perpendicular to the tooth axis (pulp cavity). […] The solution was left in the dry cavity for 2 minutes after which the base of the cavity was covered with Vitrebond and the teeth were sealed with composite.
The solution was left in the dry cavity for 2 minutes after which the cavities were filled with cotton and sealed with Cavit. The dogs in Treatment group 2 were re-treated 3× a week for 1 week (the teeth on the left side) or for 2 weeks (the teeth on the right side). […] The solution was left in the dry cavity for 2 minutes after which the cavities were filled with cotton and sealed with Cavit.
The teeth in treatment group 3 were used as negative (saline) or positive (Dycal) controls. Two of the 4 teeth per animal that were used as negative controls were treated with 2 uL saline. The solution was left in the dry cavity for 2 minutes after which the base of the cavity was covered with Vitrebond and the teeth were sealed with composite. The other 2 teeth used as negative control were treated for 15 sec with Scotchbond Etchant (Single Bond adhesive system), washed with water, air dried and treated with 2 uL saline. The solution was left in the dry cavity for 2 minutes after which the base of the cavity was covered with Single Bond, cured with light and the teeth were sealed with composite. The 2 teeth per animal in treatment group 3 that were used as a positive control were treated with Dycal and sealed with composite using standard operating procedures.
After the specimens were received, the specimens were processed, decalcified and embedded in paraffin. The maxilla specimens were stained with Haematoxylin and eosin (H&E) for new dentin formation evaluation. For immunohistochemistry evaluations, the sections were stained with TUNEL assay for evaluation of apoptosis (score 0-4), and CD45 antibody for inflammation evaluations.
Histopathological assessment of the stained section was done without knowledge of treatment group. Qualitative observations included the analysis of the tooth and underlying bone, including any soft tissue, which may have come into contact with the test material formulation. Cellular infiltrates (score 0-16) and inflammatory responses (score 0-4) at the repair site and the soft tissues were also evaluated.

bone fracture = details: rats; local injection near the fracture site; cited from earlier work
bone formation = details: mice; cited from earlier work
osteoblastic cells = details: comparable to growth factors such as BMP and IGF-1; cited from earlier work

## TDLQERGDNDISPFSGDGQPFKD [AC-100]
[1]
  proliferation and differentiation of the cells to osteoblasts: dose dependently induce proliferation and differentiation
[2]; day 3 after the extraction
  presence of connective tissue and provisional matrix in the defects: dose dependent increase
  tissue reaction in the extraction sockets: dose dependent increase in tissue reaction
[2]; day 28
  percentage of connective tissue in the defects versus saline: comparable
  quality of the new bone formed in the defect: dose dependently increases the quality of the new bone
  rate with which the defect is filled with new bone: dose dependently decreases the rate
[2]; dog, in vivo
  inflammatory response versus saline control: no significant difference
[2]; re-applied directly in the extraction sockets
  bone growth, multiple re-applications versus single application: not as effective as the single application regimen
[2]; single application at surgery, 1 mg and 10 mg on a collagen sponge, 28 days
  bone growth (bone ingrowth): caused stimulation of bone growth
Human dental pulp cells
  proliferation and differentiation of human dental pulp cells: potent activities on proliferation but not differentiation
[3]; 200 ug, 3 times per week for one week, day 28
  maximum stimulation of new dentin formation, relative to saline: 8 times
[3]; 28 days post surgery, highest two doses of AC-100 (20 ug and 200 ug), depending on the application schedule
  new dentin formation compared with Dycal: comparable to or better than Dycal
[3]; 28 days post surgery, versus saline negative control, single and multiple application schedules
  new dentin formation: dose dependent stimulation of new dentin formation
[3]; both 3 and 28 days post surgery, almost all doses applied
  number of apoptotic cells in the pulp: dose dependently decreased the number of apoptotic cells
[3]; day 28
  new dentin formation, multiple versus single application schedule: worked significantly better than the single application one
[3]; highest dose of AC-100, single application, comparable to Dycal
  new dentin formation, single application: marginal activity
[3]; single application schedule, almost all doses of AC-100
  new dentin formation, sealing with Single Bond+composite versus Vitrebond+Composite: worked markedly better than sealing with Vitrebond+Composite
[3]; summary of Example 1
  apoptotic and necrotic cell death in the pulp cavities (study summary): almost complete reduction of inflammatory reactions as well as apoptotic or necrotic cell death
  inflammatory reactions in the pulp cavities (study summary): almost complete reduction of inflammatory reactions
  regeneration of new dentin in the defects (study summary): superior regeneration of new dentin tissue
[3]; three days post surgery, 200 ug
  pulp tissue reaction at the highest dose: completely abolishing the pulp reaction
[3]; three days post surgery, almost all doses applied
  pulp inflammation: completely abolishing the pulp inflammation
[3]; three days post surgery, sealed with Single Bond or Vitrebond
  pulp tissue reaction (inflammatory and fibrosis response): dose dependent inhibition of the tissue reaction
Bone fracture
  bone fracture healing: stimulates bone fracture healing
Bone formation
  in vitro and in vivo bone formation activities: comparable to the same activities of fibroblast growth factor (FGF)
Osteoblastic cells
  proliferation and differentiation of osteoblastic cells: potent activities on proliferation and differentiation of osteoblastic cells
